Reference: patent publication US20140227191A1, “L-GLUTAMIC ACID AND L-GLUTAMINE DERIVATIVE (III), USE THEREOF AND METHOD FOR OBTAINING THEM” (BAYER SCHERING PHARMA AKTIENGESELLSCHAFT, priority 2008, published 2014)
Where a name gives a salt, the structure may show the parent alone.

Tested on: A549 cells (human Non Small Cell Lung Cancer)
Experiment: cytotoxicity assay with A549 cells using standard Alamar Blue Assay
Settings: for cell vitality: A549 cells, 48 h incubation, Alamar Blue, versus control cells, L-Glutamate at 2 mM
Method: A Dulbecco's modified Eagle's Medium (Sigma D0422), supplemented with Glutamine and 10% foetal calf serum (FCS) were used as incubation buffer. The cells were incubated for 48 h with test compounds and investigated according to manufacturer's protocol.
Afterwards, cell vitality was measured with the Alamar Blue assay kit as described above.

Compound	cell vitality	EC50 (Homo sapiens, A549, read-out: EC50 (cell vitality)) [µM]
N[C@@H](CCC(=O)O)C(=O)O [L-Glutamate, reference compound]	no differences in cell vitality	–
N[C@@H](C[C@H](CCCF)C(=O)O)C(=O)O [Example 1]	strong decrease of the cell vitality	~38
N[C@@H](C[C@H](Cc1cc(C(F)(F)F)ccc1F)C(=O)O)C(=O)O [Example 5, Neutral sodium salt of (2S,4S)-2-Amino-4-(2-fluoro-5-trifluoromethyl-benzyl)-pentane dioic acid]	strong decrease of the cell vitality	–
